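Protocol summary: plate cells (96-well), add compound at 5 concentrations, incubate 48 h, interpolate endpoints linearly. TGI denotes the concentration required for complete inhibition of growth.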
What was measured:
Test in all cases: inhibition of tumour cell growth, NCI panel, 48 h
[1] = system: MDA-MB-435
[2] = system: HS 578T breast
[3] = system: KM12 colon
[4] = system: SF-295 CNS
[5] = system: U251 CNS
[6] = system: K-562 leukemia
[7] = system: HT29 colon
[8] = system: ACHN renal
[9] = system: IGROV1 ovarian
[10] = system: UACC-62 melanoma
[11] = system: RXF 393 renal
[12] = system: BT-549 breast
[13] = system: RPMI-8226 leukemia
[14] = system: MDA-N
[15] = system: SW-620 colon
[16] = system: HOP-92 NSCLC
[17] = system: MALME-3M melanoma
[18] = system: NCI-H522 lung
[19] = system: MCF7 breast
[20] = system: DU-145 prostate
[21] = system: NCI-H226 lung
[22] = system: NCI-H460 lung
[23] = system: SF-268 CNS
[24] = system: MOLT-4 leukemia
[25] = system: SNB-19 CNS
[26] = system: T-47D breast
[27] = system: SNB-75 CNS
[28] = system: NCI-H23 lung
[29] = system: SK-MEL-2 melanoma
[30] = system: OVCAR-4 ovarian
[31] = system: 786-0 renal
[32] = system: LOX IMVI melanoma
[33] = system: HCC-2998 colon
[34] = system: HCT-15 colon
[35] = system: SK-MEL-5 melanoma
[36] = system: UO-31 renal
[37] = system: MDA-MB-231 breast
[38] = system: SR leukemia
[39] = system: SK-MEL-28 melanoma
[40] = system: CCRF-CEM leukemia
[41] = system: OVCAR-8 ovarian
[42] = system: OVCAR-3 ovarian
[43] = system: OVCAR-5 ovarian
[44] = system: UACC-257 melanoma
[45] = system: M14 melanoma
[46] = system: TK-10 renal
[47] = system: SN12C renal
[48] = system: A549 NSCLC
[49] = system: HL-60(TB) leukemia
[50] = system: COLO 205 colon
[51] = system: PC-3 prostate
[52] = system: SK-OV-3 ovarian
[53] = system: HOP-62 NSCLC
[54] = system: CAKI-1 renal
[55] = system: HCT-116 colon
[56] = system: SF-539 CNS
[57] = system: EKVX NSCLC
[58] = system: A498 renal

**Q.** `CN1CCN(C(=S)N(C(=O)c2cccs2)C2CCCCC2)CC1` was tested. Which TGI [1] did it give?
**A.** > 100 µM

**Q.** What about the TGI [2] of the same compound?
**A.** > 100 µM

**Q.** What about the TGI [3] of the same compound?
**A.** > 100 µM

**Q.** What about the TGI [4] of the same compound?
**A.** > 10 µM

**Q.** And the TGI [5]?
**A.** > 100 µM

**Q.** What about the TGI [6] of the same compound?
**A.** > 100 µM

**Q.** What about the TGI [7] of the same compound?
**A.** > 100 µM

**Q.** And the TGI [8]?
**A.** > 100 µM

**Q.** And the TGI [9]?
**A.** > 100 µM

**Q.** And the TGI [10]?
**A.** > 100 µM

**Q.** What about the TGI [11] of the same compound?
**A.** > 100 µM

**Q.** What about the TGI [12] of the same compound?
**A.** > 100 µM

**Q.** What about the TGI [13] of the same compound?
**A.** > 100 µM

**Q.** What about the TGI [14] of the same compound?
**A.** > 100 µM

**Q.** What about the TGI [15] of the same compound?
**A.** > 100 µM

**Q.** And the TGI [16]?
**A.** > 100 µM

**Q.** What about the TGI [17] of the same compound?
**A.** > 100 µM

**Q.** What about the TGI [18] of the same compound?
**A.** > 100 µM

**Q.** What about the TGI [19] of the same compound?
**A.** > 100 µM

**Q.** And the TGI [20]?
**A.** > 100 µM

**Q.** What about the TGI [21] of the same compound?
**A.** > 100 µM

**Q.** What about the TGI [22] of the same compound?
**A.** > 100 µM

**Q.** And the TGI [23]?
**A.** > 100 µM

**Q.** And the TGI [24]?
**A.** > 10 µM

**Q.** What about the TGI [25] of the same compound?
**A.** > 100 µM

**Q.** What about the TGI [26] of the same compound?
**A.** > 100 µM

**Q.** And the TGI [27]?
**A.** > 100 µM

**Q.** What about the TGI [28] of the same compound?
**A.** > 100 µM

**Q.** What about the TGI [29] of the same compound?
**A.** > 100 µM

**Q.** And the TGI [30]?
**A.** > 100 µM

**Q.** What about the TGI [31] of the same compound?
**A.** > 100 µM

**Q.** And the TGI [32]?
**A.** > 100 µM

**Q.** And the TGI [33]?
**A.** > 100 µM

**Q.** What about the TGI [34] of the same compound?
**A.** > 100 µM

**Q.** What about the TGI [35] of the same compound?
**A.** > 100 µM

**Q.** What about the TGI [36] of the same compound?
**A.** > 100 µM

**Q.** What about the TGI [37] of the same compound?
**A.** > 100 µM

**Q.** And the TGI [38]?
**A.** > 100 µM

**Q.** What about the TGI [39] of the same compound?
**A.** > 100 µM

**Q.** What about the TGI [40] of the same compound?
**A.** > 10 µM

**Q.** What about the TGI [41] of the same compound?
**A.** > 100 µM

**Q.** What about the TGI [42] of the same compound?
**A.** > 100 µM

**Q.** And the TGI [43]?
**A.** > 100 µM

**Q.** What about the TGI [44] of the same compound?
**A.** > 100 µM

**Q.** And the TGI [45]?
**A.** > 100 µM

**Q.** What about the TGI [46] of the same compound?
**A.** > 100 µM

**Q.** And the TGI [47]?
**A.** > 100 µM

**Q.** What about the TGI [48] of the same compound?
**A.** > 100 µM

**Q.** What about the TGI [49] of the same compound?
**A.** 54.2 µM

**Q.** And the TGI [50]?
**A.** > 100 µM

**Q.** How did the TGI [1] turn out when `C=C1C(O)C23CCC4C(C(=O)O)(C(=O)O)CC(OC5OC(CO)C(O)C(OC(=O)CCc6ccccc6)C5NC(=O)CC(C)C)CC4(C)C2CCC1(O)C3` (stereo not drawn) was run?
**A.** > 100 µM

**Q.** What about the TGI [2] of the same compound?
**A.** > 100 µM

**Q.** And the TGI [3]?
**A.** > 100 µM

**Q.** What about the TGI [51] of the same compound?
**A.** > 100 µM

**Q.** And the TGI [4]?
**A.** > 100 µM

**Q.** And the TGI [5]?
**A.** > 100 µM

**Q.** What about the TGI [6] of the same compound?
**A.** > 100 µM

**Q.** And the TGI [7]?
**A.** > 100 µM

**Q.** And the TGI [8]?
**A.** > 100 µM

**Q.** And the TGI [9]?
**A.** > 100 µM

**Q.** And the TGI [10]?
**A.** > 100 µM

**Q.** What about the TGI [11] of the same compound?
**A.** > 100 µM

**Q.** And the TGI [12]?
**A.** > 100 µM

**Q.** And the TGI [13]?
**A.** > 100 µM

**Q.** What about the TGI [14] of the same compound?
**A.** > 100 µM

**Q.** What about the TGI [15] of the same compound?
**A.** > 100 µM

**Q.** And the TGI [16]?
**A.** > 100 µM

**Q.** What about the TGI [17] of the same compound?
**A.** > 100 µM

**Q.** And the TGI [18]?
**A.** > 100 µM

**Q.** And the TGI [20]?
**A.** > 100 µM

**Q.** And the TGI [21]?
**A.** > 100 µM

**Q.** And the TGI [22]?
**A.** > 100 µM

**Q.** And the TGI [52]?
**A.** > 100 µM

**Q.** And the TGI [23]?
**A.** > 100 µM

**Q.** And the TGI [24]?
**A.** > 100 µM

**Q.** What about the TGI [25] of the same compound?
**A.** > 100 µM

**Q.** What about the TGI [26] of the same compound?
**A.** > 100 µM

**Q.** What about the TGI [27] of the same compound?
**A.** > 100 µM

**Q.** And the TGI [53]?
**A.** > 100 µM

**Q.** What about the TGI [54] of the same compound?
**A.** > 100 µM

**Q.** And the TGI [28]?
**A.** > 100 µM

**Q.** And the TGI [29]?
**A.** > 100 µM

**Q.** What about the TGI [30] of the same compound?
**A.** > 100 µM

**Q.** What about the TGI [31] of the same compound?
**A.** > 100 µM

**Q.** And the TGI [55]?
**A.** > 100 µM

**Q.** What about the TGI [32] of the same compound?
**A.** > 100 µM

**Q.** What about the TGI [33] of the same compound?
**A.** > 100 µM

**Q.** What about the TGI [34] of the same compound?
**A.** > 100 µM

**Q.** And the TGI [56]?
**A.** > 100 µM

**Q.** And the TGI [35]?
**A.** > 100 µM

**Q.** What about the TGI [36] of the same compound?
**A.** > 100 µM

**Q.** And the TGI [37]?
**A.** > 100 µM

**Q.** What about the TGI [38] of the same compound?
**A.** > 100 µM

**Q.** And the TGI [39]?
**A.** > 100 µM

**Q.** What about the TGI [40] of the same compound?
**A.** > 100 µM

**Q.** What about the TGI [41] of the same compound?
**A.** > 100 µM

**Q.** What about the TGI [42] of the same compound?
**A.** > 100 µM

**Q.** What about the TGI [43] of the same compound?
**A.** > 100 µM

**Q.** What about the TGI [57] of the same compound?
**A.** > 100 µM

**Q.** And the TGI [44]?
**A.** > 100 µM

**Q.** What about the TGI [45] of the same compound?
**A.** > 100 µM

**Q.** What about the TGI [58] of the same compound?
**A.** > 100 µM

**Q.** What about the TGI [46] of the same compound?
**A.** > 100 µM

**Q.** What about the TGI [47] of the same compound?
**A.** > 100 µM

**Q.** And the TGI [48]?
**A.** > 100 µM

**Q.** And the TGI [49]?
**A.** > 100 µM

**Q.** And the TGI [50]?
**A.** > 100 µM

**Q.** What does the source list for `CCOC(=O)C1(C)CCc2sc(N)c(C#N)c21` (stereo not drawn)?
**A.** TGI [2]: > 100 µM; TGI [3]: > 100 µM; TGI [51]: > 100 µM; TGI [5]: > 100 µM; TGI [6]: > 100 µM; TGI [7]: > 100 µM; TGI [8]: > 100 µM; TGI [9]: > 100 µM; TGI [10]: > 100 µM; TGI [11]: > 100 µM; TGI [12]: > 100 µM; TGI [13]: > 100 µM; TGI [14]: > 100 µM; TGI [15]: > 100 µM; TGI [16]: > 100 µM; TGI [17]: > 100 µM; TGI [19]: > 100 µM; TGI [21]: > 100 µM; TGI [22]: > 100 µM; TGI [24]: > 100 µM; TGI [25]: > 100 µM; TGI [26]: > 100 µM; TGI [27]: > 100 µM; TGI [53]: > 100 µM; TGI [28]: > 100 µM; TGI [29]: > 100 µM; TGI [31]: > 100 µM; TGI [55]: > 100 µM; TGI [33]: > 100 µM; TGI [34]: > 100 µM; TGI [35]: > 100 µM; TGI [36]: > 100 µM; TGI [37]: > 100 µM; TGI [39]: > 100 µM; TGI [40]: > 100 µM; TGI [41]: > 100 µM; TGI [43]: > 100 µM; TGI [57]: > 100 µM; TGI [44]: > 100 µM; TGI [45]: > 100 µM; TGI [58]: > 100 µM; TGI [46]: > 100 µM; TGI [47]: > 100 µM; TGI [48]: > 100 µM; TGI [49]: > 100 µM; TGI [50]: > 100 µM
